A short description of the data set: Solubility of the compound in HEPES buffer. It is filed as physicochemical.

Values after ≈ are worked out from the molar mass of the structure shown.

Take `CC(=O)c1cnc2c(=O)[nH]c(N)nc2n1`: the solubility was 500 µM (≈ 103 µg/mL).

Compound `NNC(=O)c1cnc2c(=O)[nH]c(N)nc2n1` registered a solubility of 500 µM (≈ 111 µg/mL).

The solubility is the dissolved amount per volume that the medium holds.

The record behind these values is ChEMBL document CHEMBL1821685 (Eur J Med Chem, 2011).
